Among the data in ChEMBL document CHEMBL4813932, “Terpenoid Constituents of Perovskia artemisioides Aerial Parts with Inhibitory Effects on Bacterial Biofilm Growth” (2021) are inhibition values, retold here.

What all share (experiment): microbe, parasite or virus in culture
Holding throughout (format): functional

Assay [1] deals with Escherichia coli. Particulars: DSM 8579, time 48 hrs.
Assay [2] deals with Listeria monocytogenes. The settings on record: ATCC 7644, time 48 hrs.
Assay [3] deals with Acinetobacter baumannii. Particulars: ATCC 19606 = CIP 70.34 = JCM 6841, time 48 hrs.
Assay [4] relates to Listeria monocytogenes. The settings on record: ATCC 7644, time 48 hrs. The source holds these as a separate data set.
Assay [5] concerns Listeria monocytogenes. Particulars: ATCC 7644, time 48 hrs. This is another data set of the same source.
The test system of assay [6] is Pectobacterium carotovorum. The settings on record: ATCC 15713, time 48 hrs.
The test system of assay [7] is Staphylococcus aureus. Particulars: ATCC 25923, time 48 hrs.
Assay [8] relates to Acinetobacter baumannii. Particulars: ATCC 19606 = CIP 70.34 = JCM 6841, time 48 hrs. This is another data set of the same source.
The subject of assay [9] is Pseudomonas aeruginosa. The settings on record: ATCC 50071, time 48 hrs.
Assay [10] relates to Staphylococcus aureus. Particulars: ATCC 25923, time 48 hrs. This is another data set of the same source.
Assay [11] deals with Pectobacterium carotovorum. The settings on record: ATCC 15713, time 48 hrs. This is another data set of the same source.
Assay [12] relates to Escherichia coli. Particulars: DSM 8579, time 48 hrs. This is another data set of the same source.
Assay [13] concerns Acinetobacter baumannii. Particulars: ATCC 19606 = CIP 70.34 = JCM 6841, time 48 hrs. This is another data set of the same source.
The subject of assay [14] is Acinetobacter baumannii. Particulars: ATCC 19606 = CIP 70.34 = JCM 6841, time 48 hrs. This is another data set of the same source.
In assay [15] the test system is Staphylococcus aureus. The settings on record: ATCC 25923, time 48 hrs. This is another data set of the same source.
Assay [16] relates to Escherichia coli. Particulars: DSM 8579, time 48 hrs. The source holds these as a separate data set.
For assay [17], the system named is Escherichia coli. The settings on record: DSM 8579, time 48 hrs. This is another data set of the same source.
The subject of assay [18] is Pectobacterium carotovorum. Particulars: ATCC 15713, time 48 hrs. The source holds these as a separate data set.
Assay [19] relates to Staphylococcus aureus. The settings on record: ATCC 25923, time 48 hrs. The source holds these as a separate data set.
Assay [20] relates to Pseudomonas aeruginosa. Particulars: ATCC 50071, time 48 hrs. This is another data set of the same source.
For assay [21], the system named is Pseudomonas aeruginosa. Particulars: ATCC 50071, time 48 hrs. This is another data set of the same source.
The subject of assay [22] is Listeria monocytogenes. The settings on record: ATCC 7644, time 48 hrs. The source holds these as a separate data set.
Assay [23] deals with Pectobacterium carotovorum. The settings on record: ATCC 15713, time 48 hrs. This is another data set of the same source.
The subject of assay [24] is Pseudomonas aeruginosa. Particulars: ATCC 50071, time 48 hrs. The source holds these as a separate data set.

One may read the inhibition as the drop in the measured response relative to a control, in per cent.

Regarding `CCCCCC` [HEXANE], the figures for the inhibition at 80 µg/mL in assay [1] and in assay [16] were 95.8% and 78%, respectively. Moreover, the inhibition at 4 µg/mL in assay [2] came out at 92.4%; in assay [5], 49.1%; in assay [6], 94.8%; in assay [8] it was 25.2%; in [9] it was 95.5%; in [10], 71.8%. Also, the inhibition at 4 µg/mL in [13] turned out to be 35.7%; in assay [19], 98.6%; in assay [21], 94.8%; in [23], 45.5%. In addition, the inhibition at 8 µg/mL in assay [3] is 34.7%; in [4] it was 77.3%; in [7], 99.2%; in assay [11] it was 97.8%; in assay [14], 48.5%; in [15], 93.7%. Also, the inhibition at 8 µg/mL is 49.4% in assay [18], 97.9% in assay [20], 98.3% in [22] and 97% in assay [24]. The inhibition at 40 µg/mL in assay [12] was found to be 74.2%; in [17] it was 87.6%.
On to `CC(C)c1cc2c(c(O)c1O)[C@@]13CCCC(C)(C)[C@@H]1[C@@H](O)[C@@H]2OC3=O` [ISOROSMANOL], for which the inhibition at 80 µg/mL in assay [1] was 53%; in assay [16], 52.1%. Besides, the inhibition at 4 µg/mL was determined as 25% in assay [2]; 16.2% in assay [5]; 66.3% in assay [6]; 2.5% in [8]; 0% in assay [9]; 0% in [10]. Moreover, the inhibition at 4 µg/mL in [13] is 13.2%; in assay [19] it was 0%; in [21] it was 75.4%; in assay [23] it was 56.4%. In addition, the inhibition at 8 µg/mL is 48.5% in assay [3]; 25.2% in assay [4]; 17% in assay [7]; 66.9% in assay [11]; 43.9% in assay [14]; 56.2% in assay [15]. Also, the inhibition at 8 µg/mL in assay [18] was 62.8%; in assay [20] it was 80.5%; in assay [22], 63.9%; in assay [24], 14.7%. Further, the values for the inhibition at 40 µg/mL in assay [12] and in assay [17] were 42.2% and 42.9%, respectively.
As to `CC(C)c1cc2c(c(O)c1O)[C@@]13CCCC(C)(C)[C@@H]1[C@H](OC3=O)[C@H]2O` [ROSMANOL], the inhibition at 80 µg/mL in assay [1] and in assay [16] was 0% throughout. The inhibition at 4 µg/mL was 47.3% in assay [2]; 24.9% in [5]; 0% in assay [6]; 6.9% in assay [8]; 3.7% in assay [9]; 45.1% in assay [10]. For the same molecule, the inhibition at 4 µg/mL is 44.2% in assay [13], 63.8% in [19], 68.4% in assay [21] and 45.6% in assay [23]. The inhibition at 8 µg/mL in [3] turned out to be 20.3%; in assay [4], 39.8%; in [7], 70.6%; in assay [11], 26.2%; in [14], 55.5%; in assay [15], 79.9%. The inhibition at 8 µg/mL in assay [18] was determined as 46.6%; in assay [20], 73.1%; in assay [22], 68.7%; in [24], 9.5%. For the same molecule, the inhibition at 40 µg/mL in assay [12] and in assay [17] was 0% in each case.
